Earlier results in patent US20110123612A1, “PHARMACEUTICAL PREPARATION CONTAINING NON-DIHYDROPYRIDINE CALCIUM CHANNEL BLOCKER AND ANGIOTENSIN-2 RECEPTOR BLOCKER” (priority 2008, published 2011).

Columns and labels:
[1] = active losartan molecule released into blood
[2] = active form of losartan

time to peak blood concentration [1]: ≤ 1 h
SMILES: CCCCc1nc(Cl)c(CO)n1Cc1ccc(-c2ccccc2-c2nn[nH]n2)cc1 [losartan]
anti-hypertensive effects of the active form [2]: ≥ 10 fold
